Test [1] concerns C57BL/6J.OlaaHsd mice. The test can be described thus: DSS-induced colitis, treatment with arginine, citrulline, NaNO2, fisetin or citrulline plus fisetin. Type of test: in vivo, mouse. How it is done: Colitis was induced in Vav1^Cre:As1^f/f mice and CD11c^Cre:As1^f/f with 1.5% DSS and with 0.8% DSS in the Villin^Cre:As1^f/f (wt/vol), (Dextran Sodium Sulfate, MP Biomedicals; molecular weight 36,000-50,000 Da). The powder was dissolved in the drinking water for 6 days, followed by 5 days of supplementing regular water^20. Each group consisted of eight to ten, 8-10 weeks old, male mice. Experiments were repeated at least three times. “f/f”—flox/flox.
Colonoscopy was performed on days 7 and 11 of the experiment to monitor for severity of colitis. For the procedure, a high resolution mouse video endoscopic system was used, which consists of a miniature endoscope (scope 1.9 mm outer diameter), a xenon light source, a triple chip camera, and an air pump to achieve regulated inflation of the mouse bowel (Karl Storz, Tuttlingen, Germany). Mice were anesthetized by the administration of 4-5% of isoflurane in 100% oxygen at a rate of 0.2-0.5 L/min or by the administration of 100 mg/kg Ketamine/10 mg/kg Xylazine mixture IP, after which, the endoscope was introduced via the anus and the colon was carefully insufflated with an air pump before analysis of the colonic mucosa. The endoscopic procedure was viewed on a color monitor and digitally recorded on tape. Colitis was scored according to the Murine endoscopic index of colitis severity (MEICS), considering differences in the thickness of the bowel wall, changes in blood vessel integrity, mucosal surface, stool consistency or the presence of fibrin, scored each between 0 and 3. The cumulative score ranged from 0 (no signs of inflammation) to 15 (signs of severe inflammation)^21.
Mice were treated with 1% (wt/vol) DSS for 6 days, followed by administration of either arginine 1% (wt/vol) solution (Sigma-Aldrich, St. Louis, Mo., catalogue number A8094) in drinking water, citrulline 1% (wt/vol) (L-citrulline, Chem-Impex International), NaNO2 100 mg (Sigma-Aldrich, St. Louis, Mo., catalogue number S2252), or water as control for additional 6 days.
Fisetin was given by intraperitoneal (i.p.) injection (1 mg/animal) in 30 μL of DMSO twice weekly. The control group was injected with 30 μL of DMSO twice weekly. Each group consisted of ten, 8-weeks old, male mice. Experiments were repeated three times.
Histopathology. On the day of sacrifice, colons were removed and their length was measured. Colon was fixed in 2.5% PFA solution overnight at 4° C., then embedded in paraffin, sectioned and stained with H&E. Tissues were examined in a blinded manner by a pathologist and scored on a 0-4 scale based on the parameters of inflammation severity^20.

The next test concerns control mice. The test is described as follows: DSS colitis (0.8% DSS) in control mice, fisetin or NaNO2. The format is in vivo, mouse. The conditions noted are these: control (WT) mice, 0.8% DSS 5 days, fisetin 1 mg IP twice, FIGS. 4L-N. How it is done:
(§1) Colitis was induced on C57BL/6J.OlaaHsd mice. Mice were treated with 1% DSS for 6 days, followed by administration of either fiselin (1 mg in 30 μl DMSO IP, twice, in 3 days interval) citrulline 1% (wt/vol) solution in drinking water, the combination of both treatments or only DMSO as a control (30 μl DMSO IP, twice, in 3 days interval). […] FIGS. 4L-N—Colitis was induced on enterocytes CKO mice and compared to controls. Mice were treated with 0.8% DSS for 5 days, followed by administration with either NO donors; NaNO2 (100 mg/kg) or fisetin (1 mg in 30 μl DMSO IP, twice, in 3 days interval). […] Note that colitis severity is reduced by activating As1 in enterocytes, by citrulline and fisetin supplementation.
(§2) Colitis was induced in Vav1^Cre:As1^f/f mice and CD11c^Cre:As1^f/f with 1.5% DSS and with 0.8% DSS in the Villin^Cre:As1^f/f (wt/vol), (Dextran Sodium Sulfate, MP Biomedicals; molecular weight 36,000-50,000 Da). […]
(§3) Colonoscopy was performed on days 7 and 11 of the experiment to monitor for severity of colitis. […] The endoscopic procedure was viewed on a color monitor and digitally recorded on tape. Colitis was scored according to the Murine endoscopic index of colitis severity (MEICS), considering differences in the thickness of the bowel wall, changes in blood vessel integrity, mucosal surface, stool consistency or the presence of fibrin, scored each between 0 and 3. […]

Another test has as its system enterocytes CKO mice. The test can be described thus: DSS colitis (0.8% DSS) in enterocytes CKO mice, fisetin or NaNO2. Type of test: in vivo, mouse. Particulars: 0.8% DSS 5 days, fisetin 1 mg IP twice, FIGS. 4L-N. On the procedure: as §1, §2, §3
The next test deals with As1. The test is described as follows: Immunohistochemistry staining of distal colon sections for As1. The format is in vivo, mouse. Particulars: after colitis induction, vs control mice with colitis, FIG. 3E, 4A. On the procedure:
Four micrometer paraffin embedded tissue sections were deparaffinized and rehydrated. Endogenous peroxidase was blocked with three percent H2O2 in methanol. Sections undergoing for ALS staining were incubated in cold acetone at −20° C. for 7 minutes. For F4/80 and MAC-2 staining, the present inventors performed antigen retrieval in Tris-EDTA pH 9 and 10 mM citric acid pH 6, for 10 minutes, respectively, using a low boiling program in the microwave to break protein cross-links and unmask antigens. After pre-incubation with 20% normal horse serum and 0.2% Triton X-100 for 1 hour at RT (root temperature), sections were incubated with the primary antibodies as follow; ASL (1:100, Abcam, ab97370, CA, USA); F4/80 (1:50, Serotec, Kidllington, UK); Mac-2 (1:400, Cedarlane, N.C., USA). For fluorescent double-staining of ASL and CD11c the mouse anti ASL (1:50 Santa Cruz Biotechnology, Inc. sc-166787, TX, USA) and rabbit anti CD11c (1:50, ab52632) were used. All antibodies were diluted in PBS containing 2% normal horse serum and 0.2% Triton. Sections were incubated overnight at RT followed by 48 hours at 4° C. Sections were washed three times in PBS and incubated with secondary biotinylated IgG at RT (room temperature) for 1.5 hour, washed three times in PBS and incubated with avidin-biotin Complex (Elite-ABC kit, Vector Lab, CA, USA) at RT for additional 90 minutes followed by DAB (Sigma) reaction. For the fluorescent staining the CY2 conjugated anti mouse and CY3 conjugated streptavidin (1:100 and 1:200 respectively, Jackson ImmunoResearch, West Grove, Pa.) were used.

Test [2] has as its system C57BL/6J.OlaaHsd mice. The test is described as follows: DSS-induced colitis, treatment with arginine, citrulline, NaNO2, fisetin or citrulline plus fisetin. The format is in vivo, mouse. The conditions noted are these: day 12; fisetin, citrulline or both vs DMSO control; FIG. 4C.
In test [3] the test system is lipopolysaccharide (LPS)-stimulated mouse primary peritoneal macrophages. Particulars: in vitro; cited from earlier work.

As to `O=c1c(O)c(-c2ccc(O)c(O)c2)oc2cc(O)ccc12` [fisetin, 3,7, 3′, 4′-tetrahydroxyflavone], the weight loss result with C57BL/6J.OlaaHsd mice [1] (1% DSS 6 days, then fisetin 1 mg IP twice, citrulline 1% in drinking water or both vs DMSO control, FIG. 4B) is on record as “significant weight loss is documented in the control group compared to the treated mice”. For the same compound, the “colitis severity in all parameters” value with C57BL/6J.OlaaHsd mice [1] (fisetin vs control, FIG. 4A-E) is “improved colitis severity in all parameters”. Besides, in the test on C57BL/6J.OlaaHsd mice [1] (fisetin, citrulline or both vs DMSO control, FIG. 4D), the colon length result is recorded as “significant longer”. Besides, in the test on C57BL/6J.OlaaHsd mice [1] (fisetin, citrulline or both vs DMSO control, FIG. 4E), the histological score entry is “significant reduction”. Besides, the “effect of treatment on colitis (survival, body weight gain, colitis score)” value was “improved colitis severity” in the test with control mice, “effective in the control group” with control mice (listed as Fisetin), “did not have an effect” in the test on enterocytes CKO mice and “not in the enterocytes CKO mice” in the test with enterocytes CKO mice (listed as Fisetin). Also, the “As1 expression in distal colon sections (intestine, enterocytes)” value was “up regulation” in the test on As1 and “upregulated” in the test with As1 (listed as fesitin). For the same compound, the endoscopic colitis score result in the test on C57BL/6J.OlaaHsd mice [2] is “significant improvement”. Moreover, in test [3], the pro-inflammatory cytokine result is reported as “significantly reduces pro-inflammatory cytokine”.

Values taken from patent publication US20190314312A1, “COMBINATION THERAPY TO INCREASE ENDOGENOUS NITRIC OXIDE (NO) SYNTHESIS” (Yeda Research and Development Co. Ltd., priority 2016, published 2019).
